In brackets after ≈: the same amount, converted by molar mass.
System: Mannheimia haemolytica
Assay: minimum inhibitory concentration (MIC)
Description: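 Broth microdilution MIC (Sensititre BOPO7F bovine plate, CLSI methods) of 19 antimicrobials against field isolates of P. multocida, M. haemolytica, H. somni (deep nasopharyngeal swabs) and E. coli, Enterococcus spp. (rectal swabs) from weaned dairy heifers. Incubation 16-24 h at 35 C. MIC is the lowest concentration preventing visible growth. Values with <= or > lie at the tested range limits. Trimethoprim-sulfamethoxazole is given as the trimethoprim component of a 1:19 mixture.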

CO/N=C(\C(=O)N[C@@H]1C(=O)N2C(C(=O)O)=C(CSC(=O)c3ccco3)CS[C@H]12)c1csc(N)n1 [Ceftiofur]
Conditions | minimum inhibitory concentration [µg/mL]
isolate (source animal id): 8 | ≤ 0.25
isolate (source animal id): 13 | ≤ 0.25
isolate (source animal id): 18 | ≤ 0.25
isolate (source animal id): 21 | ≤ 0.25
isolate (source animal id): 25 | ≤ 0.25
isolate (source animal id): 27 | ≤ 0.25
isolate (source animal id): 28 | 2 (≈ 3.82 µM)
isolate (source animal id): 30 | ≤ 0.25
isolate (source animal id): 31 | ≤ 0.25
isolate (source animal id): 32 | ≤ 0.25
isolate (source animal id): 34 | ≤ 0.25
isolate (source animal id): 36 | ≤ 0.25
isolate (source animal id): 37 | ≤ 0.25
isolate (source animal id): 40 | ≤ 0.25
isolate (source animal id): 41 | ≤ 0.25
isolate (source animal id): 43 | ≤ 0.25
isolate (source animal id): 46 | ≤ 0.25
isolate (source animal id): 49 | ≤ 0.25
isolate (source animal id): 50 | ≤ 0.25
isolate (source animal id): 51 | ≤ 0.25
isolate (source animal id): 52 | ≤ 0.25
isolate (source animal id): 53 | ≤ 0.25
isolate (source animal id): 55 | ≤ 0.25
isolate (source animal id): 56 | ≤ 0.25
isolate (source animal id): 57 | ≤ 0.25
isolate (source animal id): 100 | ≤ 0.25
isolate (source animal id): 103 | ≤ 0.25
isolate (source animal id): 107 | ≤ 0.25
isolate (source animal id): 108 | ≤ 0.25
isolate (source animal id): 112 | ≤ 0.25
isolate (source animal id): 113 | ≤ 0.25
isolate (source animal id): 121 | ≤ 0.25
isolate (source animal id): 122 | ≤ 0.25
isolate (source animal id): 123 | ≤ 0.25
isolate (source animal id): 126 | ≤ 0.25
isolate (source animal id): 133 | ≤ 0.25
isolate (source animal id): 135 | ≤ 0.25
isolate (source animal id): 138 | ≤ 0.25
isolate (source animal id): 141 | ≤ 0.25
isolate (source animal id): 142 | ≤ 0.25
isolate (source animal id): 145 | ≤ 0.25
isolate (source animal id): 149 | ≤ 0.25
isolate (source animal id): 151 | ≤ 0.25
isolate (source animal id): 152 | ≤ 0.25
isolate (source animal id): 154 | ≤ 0.25
isolate (source animal id): 159 | ≤ 0.25
isolate (source animal id): 162 | ≤ 0.25
isolate (source animal id): 170 | ≤ 0.25
isolate (source animal id): 171 | ≤ 0.25
isolate (source animal id): 172 | ≤ 0.25
isolate (source animal id): 173 | ≤ 0.25
isolate (source animal id): 179 | ≤ 0.25
isolate (source animal id): 180 | ≤ 0.25
isolate (source animal id): 183 | ≤ 0.25
isolate (source animal id): 186 | ≤ 0.25
isolate (source animal id): 187 | ≤ 0.25
isolate (source animal id): 188 | ≤ 0.25
isolate (source animal id): 190 | ≤ 0.25
isolate (source animal id): 191 | ≤ 0.25
isolate (source animal id): 192 | ≤ 0.25
isolate (source animal id): 201 | ≤ 0.25
isolate (source animal id): 202 | ≤ 0.25
isolate (source animal id): 209 | ≤ 0.25
isolate (source animal id): 211 | ≤ 0.25
isolate (source animal id): 220 | ≤ 0.25
isolate (source animal id): 221 | ≤ 0.25
isolate (source animal id): 223 | ≤ 0.25
isolate (source animal id): 233 | ≤ 0.25
isolate (source animal id): 237 | ≤ 0.25
isolate (source animal id): 241 | ≤ 0.25
isolate (source animal id): 252 | ≤ 0.25
isolate (source animal id): 253 | ≤ 0.25
isolate (source animal id): 259 | ≤ 0.25
isolate (source animal id): 260 | ≤ 0.25
isolate (source animal id): 262 | ≤ 0.25
isolate (source animal id): 282 | ≤ 0.25
isolate (source animal id): 287 | ≤ 0.25
isolate (source animal id): 288 | ≤ 0.25
isolate (source animal id): 291 | ≤ 0.25
isolate (source animal id): 293 | ≤ 0.25
isolate (source animal id): 298 | ≤ 0.25
isolate (source animal id): 299 | ≤ 0.25
isolate (source animal id): 300 | ≤ 0.25
isolate (source animal id): 302 | ≤ 0.25
isolate (source animal id): 304 | ≤ 0.25
isolate (source animal id): 306 | ≤ 0.25
isolate (source animal id): 308 | ≤ 0.25
isolate (source animal id): 309 | ≤ 0.25
isolate (source animal id): 313 | ≤ 0.25
isolate (source animal id): 318 | ≤ 0.25
isolate (source animal id): 320 | ≤ 0.25
isolate (source animal id): 321 | ≤ 0.25
isolate (source animal id): 323 | ≤ 0.25
isolate (source animal id): 324 | ≤ 0.25
isolate (source animal id): 326 | ≤ 0.25
isolate (source animal id): 328 | ≤ 0.25
isolate (source animal id): 329 | ≤ 0.25
isolate (source animal id): 333 | ≤ 0.25
isolate (source animal id): 335 | ≤ 0.25
isolate (source animal id): 338 | ≤ 0.25

Source: the supplement of paper PMC8612539
